In patent publication US8912146B2, “Derivatives of APF and methods of use” (University of Maryland, Baltimore, priority 2008, dated 2014):
Like-named read-outs stand apart in the source and are kept apart here.

How the values were obtained:
[1] = system: primary normal human bladder epithelial cells; experiment: 3H-thymidine incorporation (antiproliferative activity) in primary normal bladder epithelial cells; assay type: cell-based
Protocol: Cell Culture. Cystoscopy was performed under general anesthesia, and 4-mm^2 pieces of transitional epithelium with submucosal bladder tissue were obtained for the growth of primary bladder epithelial cells, as previously described (Keay et al., 1996; 2004). Primary normal bladder epithelial cells were propagated in DMEM-F12 (Media-Tech, Herndon Va.) with 10% heat-inactivated fetal bovine serum (FBS), 1% antibiotic/antimycotic solution, 1% L-glutamine, 0.25 units/mL insulin (all from Sigma, St. Louis, Mo.), and 5 ng/mL hEGF (R&D Systems, Minneapolis, Minn.) at 37° C. in a 5% CO2 atmosphere and characterized by binding of AE-1/AE-3 pancytokeratin antibodies (Signet, Dedham, Mass.).
^3H-Thymidine Incorporation. Cell proliferation was measured by ^3H-thymidine incorporation into explanted normal human bladder epithelial cells, plating 1.5×10^4 cells/well onto a 96 well cell culture plate (VWR 29442-054), in 150 ul/well MEM containing 10% heat inactivated FBS, 1% antibiotic/antimycotic solution, and 1% L-glutamine (all from Sigma), resulting in a doubling time of 48-72 hours, as previously described (Keay et al., 1996; 2004). Each purified lyophilized synthetic APF congener was resuspended in acetonitrile/distilled water (1:1), and applied to the cells in serum-free MEM (containing only L-glutamine and antibiotics/antimycotics); cell controls received acetonitrile/distilled water diluted in serum-free MEM alone. Cells were then incubated at 37° C. in a 5% CO2 atmosphere for 48 hours. The cell contents harvested and methanol-fixed onto glass fiber filter paper, and the amount of radioactivity incorporated determined. Significant inhibition of ^3H-thymidine incorporation was defined as a mean decrease in counts per minute of greater than 2 standard deviations from the mean of control cells for each plate. Inhibition of cell proliferation was determined from a semi-log plot of dose-response for each APF derivative; IC50 was determined as the concentration of each derivative that caused a mean 50% inhibition of thymidine incorporation as compared to the mean of untreated cell controls.
Statistical Analysis. The thymidine incorporation (APF biological activity) assay was performed in triplicate on at least two separate runs, with 1 run simultaneously in triplicate on the same plate. The significance of the difference between mean values for each congener vs. mean values for compound 1 was determined by an analysis of variance.

[2] = system: bladder epithelial cells from IC/PBS patients; experiment: Stimulation of IC/PBS cell proliferation (3H-thymidine incorporation); assay type: cell-based, human
Protocol: (§1) IC/PBS cells were incubated with varying concentrations of two derivatives shown to inhibit APF activity in normal bladder cells—GalGalNAc-TV(D-pipecolic acid) AAVVVA (SEQ ID NO:14) and GalGalNAc-TV (D-proline)AAVVVA (SEQ ID NO:27). Cell proliferation was determined by ^3H-thymidine incorporation; gene expression by quantitative RT-PCR; specific protein expression by Western blot analysis; tight junction formation by confocal immunofluorescence microscopy; and paracellular permeability by ^14C-mannitol and ^3H-inulin flux between confluent cells on Transwell plates. Significance of the difference in mean values between groups was determined by an analysis of variance for each assay.
as §1, with “cells -GalGalNAc-TV-(D-pipecolic acid)-AAVVVA” for “cells—GalGalNAc-TV(D-pipecolic acid) AAVVVA”, “NO:7)” for “NO:14)”, “GalGalNAc-TV-(D-proline)-AAVVVA” for “GalGalNAc-TV (D-proline)AAVVVA”, “RT-PCR;” for “RT-PCR; specific protein expression by Western blot analysis;”
IC/PBS cells produce APF and as a result have a profound decrease in cell proliferation. […]
Cystoscopy was performed under general anesthesia, and 4-mm^2 pieces of transitional epithelium with submucosal bladder tissue were obtained from IC/PBS patients and controls for the growth of primary bladder epithelial cells, as previously described (Keay et al., 2000; Keay et al., 2001; Keay et al., 2004; Keay et al., 2003). […]
Cell proliferation was measured by ^3H-thymidine incorporation into explanted normal human bladder epithelial cells, as previously described (Keay et al., 2000; Keay et al., 2001; Keay et al., 2004; Keay et al., 2003; Saitoh et al., 2001). […]

[3] = system: tight junction proteins in IC/PBS cells; experiment: Immunofluorescence confocal microscopy of tight junction proteins in IC/PBS cells; assay type: cell-based, human; details: IC/PBS cell explants, 9 days
Protocol: For immunofluorescence, cells were fixed using ethanol/acetone (1:1) for 15 minutes at room temperature, washed 3 times with PBS and incubated with fluorescein isothiocyanate (FITC) labeled mouse monoclonal anti-ZO-1 (5 μg/ml); or unlabeled mouse monoclonal anti-occludin (5 μg/ml) or anti-claudin 4 (3 μg/ml); or unlabeled rabbit polyclonal anti-claudin 1 (3 μg/ml), anti-claudin 8 (8 μg/ml), or anti-claudin 12 (5 μg/ml from Zymed, South San Francisco, Calif.) diluted in PBS for 2 hours at 37 C. Cells incubated with unlabeled mouse monoclonal primary antibodies were then washed 3 times with PBS and further incubated with FITC-labeled secondary goat anti-mouse IgG antibody (Zymed) diluted in PBS, while cells incubated with unlabeled rabbit polyclonal primary antibodies were washed and further incubated for 2 hours at 37 C with goat anti-rabbit IgG (Zymed) diluted in PBS. Following an additional 5 washes with PBS, the cells were examined using an LSM510 confocal laser scanning microscope (Carl Zeiss, Oberkochen, Germany). Negative controls for the method included cells incubated without primary and secondary antibodies as well as cells incubated with secondary antibody alone.

## CC(=O)NC1C(O[C@@H]2OC(CO)[C@H](O)C(O)C2O)[C@@H](O)C(CO)O[C@@H]1OC(C)[C@H](N)C(=O)NC(C(=O)N1CCCC1C(=O)NC(C)C(=O)N[C@@H](C)C(=O)NC(C(=O)N[C@H](C(=O)NC(C(=O)N[C@@H](C)C(=O)O)C(C)C)C(C)C)C(C)C)C(C)C (stereo in doubt) [Derivative 8, GalGalNAc-TV(D-proline)AAVVVA]
[1]
  antiproliferative activity compared with as-APF (1), in words: completely abolished activity
[1]; listed as D-proline APF
  antiproliferative activity compared with as-APF (1), in words: Neither D-proline APF nor D-pipecolic acid APF had any intrinsic antiproliferative activity
[1]; relative to 1 (as-APF) run on the same plate, from IC50, inactive = no significant activity at <25 μM
  % of activity: inactive
[2]; 1 nM twice weekly, by Day 16 (FIG. 55)
  stimulation of IC/PBS cell proliferation: significantly (p<0.05) stimulated IC/PBS cell proliferation
[2]; 0.25 μM of each agent, 9, 16, 23, 30 day treatment (FIG. 41)
  stimulation of IC cell proliferation: Optimal stimulation of IC cell proliferation
[2]; 16 and 30 days of treatment (FIG. 48)
  IC cell proliferation vs untreated controls: significantly stimulated
[3]
  expression of tight junction proteins by immunofluorescence confocal microscopy: increased
